Experimental data from the supplement of paper PMC4862054.

How the values were obtained:
Details in all cases: incubation time: 72 h
MDA-MB-468 [1] = test: drug sensitivity score (DSS), CellTiter-Blue viability (DSS (AUC-based score)); higher = stronger viability inhibition; extreme values may be limits of the assay
Outline: (§1)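 Cells from breast cancer lines were grown with compound for 72 h in 384-well plates, using a 5- or 9-concentration series. CellTiter-Blue fluorescence (560/590 nm) served as the viability readout, normalised plate by plate to 0.1 % DMSO and a positive kill control. A drug sensitivity score was computed as the area under the fitted dose-response curve.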

MDA-MB-231 [2] = test: as above
Outline: as §1

BT-474 [3] = test: as above
Outline: as §1

SK-BR-3 [4] = test: as above
Outline: as §1

HCC1937 = test: normalised viability (% of control), CellTiter-Blue; higher = more viable cells (about 100 = DMSO control)
Outline: (§2)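 The reported figure is normalised viability at a single listed concentration of the series. Breast cancer cell lines (20 µl suspension) went onto 384-well plates holding compound in 5 µl medium for 72 h. CellTiter-Blue (2.5 µl, 2 h, 37 °C) was read by fluorescence at 560/590 nm, and each plate was scaled to vehicle at 100 and a positive kill control at 0.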

CAL-51 = test: as above
Outline: as §2

MDA-MB-468 [5] = test: as above
Outline: as §2

MDA-MB-436 = test: as above
Outline: as §2

MDA-MB-453 = test: as above
Outline: as §2

BT-549 = test: as above
Outline: as §2

MDA-MB-231 [6] = test: as above
Outline: as §2

HDQ-P1 = test: as above
Outline: as §2

BT-474 [7] = test: as above
Outline: as §2

CAL-85-1 = test: as above
Outline: as §2

HCC1599 = test: as above
Outline: as §2

Hs578T = test: as above
Outline: as §2

SK-BR-3 [8] = test: as above
Outline: as §2

MFM-223 = test: as above
Outline: as §2

DU-4475 = test: as above
Outline: as §2

CAL-148 = test: as above
Outline: as §2

CAL-120 = test: as above
Outline: as §2

HCC1143 = test: as above
Outline: as §2

Cn1c(CCCC(=O)O)nc2cc(N(CCCl)CCCl)ccc21 [Bendamustine]
Details	drug sensitivity score
BT-474 [3]	0
MDA-MB-231 [2]	0
MDA-MB-468 [1]	0
SK-BR-3 [4]	0.0662

normalised viability [%]
Details	3 nM	10 nM	30 nM	100 nM	1000 nM	10000 nM
BT-474 [7]	–	127	–	–	120	105
BT-549	–	107	–	–	101	101
CAL-51	111	–	105	111	–	–
CAL-85-1	91.2	–	94.8	100	–	–
CAL-120	–	89.5	–	–	86.7	93.4
CAL-148	99.8	–	112	106	–	–
DU-4475	90	–	102	101	–	–
HCC1143	–	107	–	–	104	97.8
HCC1599	–	115	–	–	105	114
HCC1937	–	55.3	–	–	85.7	93.7
HDQ-P1	105	–	119	109	–	–
Hs578T	–	110	–	–	127	97.7
MDA-MB-231 [6]	–	102	–	–	96.1	91
MDA-MB-436	–	94.7	–	–	70.4	116
MDA-MB-453	125	–	108	106	–	–
MDA-MB-468 [5]	–	107	–	–	95	82.3
MFM-223	–	96.2	–	–	87.4	93.5
SK-BR-3 [8]	–	108	–	–	109	85
